Source: ChEMBL document CHEMBL5120903, “Constituents of Croton megalocarpus with Potential Anti-HIV Activity” (J Nat Prod, 2022)

How the values were obtained:
[1] = biological target: Human immunodeficiency virus type 1 protease (Human immunodeficiency virus 1) (UniProt Q72874); experiment: Inhibition of HIV-1 protease at 10 ug/ml by fluorescence based plate reader assay relative to control; settings: dose 10.0 µg/ml
[2] = tested on: Human immunodeficiency virus 1; experiment: Anti-retroviral activity against HIV-1 IIIB infected in human MT4 cells assessed as inhibition of viral replication and measured after 5 days by MTT assay; format: functional, organism-based; settings: Human immunodeficiency virus 1, IIIB, MT4, 120 h
[3] = Cytotoxicity against human MT4 cells and measured after 5 days by MTT assay; format: toxicity, cell-based
[4] = Cytotoxicity against human FM55M1 cells assessed as reduction in cell viability measured upto 50 uM incubated for 72 hrs by cell titre 96 reagent based plate reader analysis; format: toxicity; settings: fm55m1, 72 h

Row | inhibition [1] [%] | Structure (SMILES) | IC50 [2] [µM] | IC50 at 5 days [3] [µM] | Activity [4]
1 | 63 | C=C1CC[C@@H]2OC(=O)C(C)=C2[C@@H]2[C@@H]1[C@@]13O[C@@]1([C@@H](Cl)[C@@H](C)[C@H]3OC(C)=O)[C@@H](O)[C@@]2(C)O | 0.028 | 209 | Non-Toxic
2 | 75 | C=C1CC[C@]2(O)OC(=O)C(C)=C2[C@@H]2[C@@H]1[C@@]13O[C@@]1(C[C@@H](C)[C@H]3O)[C@H]1O[C@@]21C | 0.0055 | 510 | Non-Toxic
